How the values were obtained:
Type in all cases: cell-based, human
WI38 fibroblasts = assay: Proliferation (confluency) of WI38 fibroblasts, Example 1; conditions: for cell proliferation: concentration not stated
Protocol: (§1) The proliferation effects of vitamin C on WI38 fibroblasts were tested. This cell line is useful as an aging model since it is a mortal human cell line that follows the Hayflick limit, in that it undergoes a certain number of cell divisions before stopping. The senescence level in WI38 increased as the cell line divided. […] A membrane-soluble derivative of vitamin C, 6-O-Palmitoyl-L-ascorbic acid (PalmAA), which has an additional fatty acid that allows it to pass through the cell membrane, was also tested. The oxidized derivative of vitamin C, dehydroascorbic acid (DHAA), as Vitamin C is actively converted to DHAA in cell culture media, was tested as well. Insulin was also added to this experiment to upregulate Glut-1 transporter, through which DHAA enters the cell.
A) Cell images of 12-well plate treated with low concentration vitamin C at Day 0, 4 and 5 for PD46. B) Confluency plot calculated through ImageJ of PD46, n=2. C) and D) Expression graphs for ARM (e.g., ELOVL2) and SLC2A1 for PD46, n=3. E) Cell images of 12-well treated with high concentration vitamin C at Day 0, 4 and 5 for PD48. F) Confluency plot calculated through ImageJ of PD48, n=2. G) and […]) Expression graphs for ARM and SLC2A1 for PD48, n=3.
FIG. 2 illustrates phenotypic and genotypic effects of vitamin C treatment were analyzed on younger WI38 PD42 and older WI38 PD58 fibroblasts. A) Cell images of 12-well at Day 0, 1 and 2 of treatment for PD42. B) Confluency plot calculated through ImageJ of PD42, n=2. C) and D) Expression graphs for ARM (e.g., ELOVL2) and SLC2A1 for PD42, n=3. E) Cell images of 12-well at Day 0, 5 and 7 of treatment for PD58. F) Confluency plot calculated through ImageJ of PD58, n=2. G) and H) Expression graphs for ARM (e.g., ELOVL2) and SLC2A1 for […], n=3. I) Cell images of senescence and DAPI staining of PD45.5 fibroblasts. J) Graph of percentage senescence for younger PD32 fibroblast and older PD45.5 fibroblast. n=3.
A) Cell images of 12-well at Day 0 and Day 8 of treatment for PD55. B) Confluency plot calculated through ImageJ for PD55, n=2. C) and D) Expression graph for ARM (e.g., ELOVL2) and SLC2A1 for PD55, n=3.
A) Diagram of postulated pathway for interconversion of DHAA to vitamin C and their effect on fibroblast cells. B) Cell images of 12-well at Day 10 of treatment for PD54. C) Confluency plot calculated through ImageJ of PD54, n=2. D and E) Expression graphs for ARM (e.g., ELOVL2) and SLC2A1 for PD54, n=3. F) Graph of percentage senescence for younger PD32 fibroblast and older PD45.5 fibroblast. n=3. G) Fluorescent ROS assay showing fluorescent ROS relative to total fibroblasts in PD48 fibroblasts.

ELOVL2 [1] = assay: Expression of age-related marker (ARM, e.g. ELOVL2) in WI38 fibroblasts, Example 1
Protocol: as §1
A) Cell images of 12-well plate treated with low concentration vitamin C at Day 0, 4 and 5 for PD46. B) Confluency plot calculated through ImageJ of PD46, n=2. […] F) Confluency plot calculated through ImageJ of PD48, n=2. […]
FIG. 2 illustrates phenotypic and genotypic effects of vitamin C treatment were analyzed on younger WI38 PD42 and older WI38 PD58 fibroblasts. […] B) Confluency plot calculated through ImageJ of PD42, n=2. […] F) Confluency plot calculated through ImageJ of PD58, n=2. […]
A) Cell images of 12-well at Day 0 and Day 8 of treatment for PD55. B) Confluency plot calculated through ImageJ for PD55, n=2. […]

WI38 cells at PD55 [2] = assay: Cell senescence of WI38 PD55 by beta gal staining assay
Protocol: (§2) WI38 cells at PD55 (55th population doubling) were incubated with different concentrations of vitamin C (Vc), L-dehydro ascorbic acid (DHAA or DHA), or L-ascorbic acid 2-phosphate (VcP). DHAA (or DHA) is an oxidized form of vitamin C. L-ascorbic acid 2-phosphate (VcP) is a vitamin C derivative. Three concentrations were used for each tested compound and the concentrations included 0.3 mM (equivalent to […]), 1.2 mM, or 1.8 mM.

WI38 cells at PD55 [3] = assay: WI38 PD55 confluency / cell proliferation, Example 6
Protocol: as §2

ELOVL2 [4] = assay: ELOVL2 expression in aging WI38 cells (PD55)
Protocol: as §2
The expression of ELOVL2 is also observed to be increased with a low concentration of vitamin C and all concentrations of L-ascorbic acid 2-phosphate (VcP) but not with DHAA (FIG. 27).

aged fibroblast = assay: Reversal of biological age / reprogramming of aged fibroblast into iPSCs; conditions: low concentration
Protocol: As used herein, the terms “biological age (bioage),” “chemical age,” “methylomic age,” and “molecular age” are equivalent or synonymous. The biological age is determined using a set of age-associated markers (e.g., epigenetic markers) of a subject or an organism. In the current disclosure, the biological age is determined from an analysis of the modification status of specific CpG dinucleotide and, in particular, e.g., the methylation status at the C-5 position of cytosine.

[5] = all concentrations (0.3 mM, 1.2 mM, 1.8 mM)
[6] = all three concentrations (0.3 mM, 1.2 mM, 1.8 mM)

SMILES: CCCCCCCCCCCCCCCC(=O)OC[C@H](O)[C@H]1OC(=O)C(O)=C1O [6-O-Palmitoyl L-ascorbic acid, 6-O-Palmitoyl-L-ascorbic acid]
- cell proliferation (WI38 fibroblasts): induced minimal proliferation
- gene expression change in the age related marker (ELOVL2 [1]): caused no gene expression change in the age related marker

SMILES: O=C1O[C@H]([C@@H](O)CO)C(=O)C1=O [DHAA, dehydroascorbic acid]
- protection against cell senescence (WI38 cells at PD55 [2]; [5]): did not exert a protective effect against cell senescence
- cell proliferation (WI38 cells at PD55 [3]; [6]): increased cell proliferation is not observed
- cell proliferation (WI38 fibroblasts): induced lower cell proliferation compared to an equal concentration of vitamin C
- expression of ELOVL2 (ELOVL2 [4]; [5]): not

SMILES: O=C1O[C@H]([C@@H](O)CO)C(O)=C1OP(=O)(O)O [L-ascorbic acid 2-phosphate]
- protection against cell senescence (WI38 cells at PD55 [2]; [5]): protective against cell senescence
- cell proliferation (WI38 cells at PD55 [3]; [6]): cell proliferation is observed
- expression of ELOVL2 (ELOVL2 [4]; [5]): increased

SMILES: O=C1O[C@H]([C@@H](O)CO)C(O)=C1O [vitamin C, L-ascorbic acid]
- protection against cell senescence (WI38 cells at PD55 [2]; low concentration): protective against cell senescence
- cell proliferation rate (WI38 cells at PD55 [3]; higher concentration, 1.2 mM or 1.8 mM, relative to 0.3 mM): slower cell proliferation rate relative to the concentration at 0.3 mM
- cell proliferation (WI38 cells at PD55 [3]; low concentration, 0.3 mM): increase cell proliferation
- proliferative effect, older vs younger fibroblast cells (WI38 fibroblasts; 50 μg/mL): more pronounced on older fibroblast cells compared to younger fibroblast cells
- fibroblast cell growth / cell death (WI38 fibroblasts; higher concentrations, 200 μg/mL to 500 μg/mL): slowed or inhibited fibroblast cell growth while causing cell death
- fibroblast proliferation (WI38 fibroblasts; low concentrations, 50 μg/mL to 100 μg/mL): induced fibroblast proliferation
- expression of ELOVL2 (ELOVL2 [4]; low concentration): increased
- biological age (aged fibroblast): reversed
- reprogramming of aged fibroblast into iPSCs (aged fibroblast): reverted into iPSCs from aged fibroblast

Source: US10202650B2, “Methods for monitoring ELOVL2, KLF14 and PENK gene expression following treatment with vitamin C” (The Regents of the University of California, priority 2016, dated 2019)
